In patent US20140336267A1, “UTILIZATION OF THE FUNCTION OF RARE SUGAR AS PROMOTER FOR THE MIGRATION OF GLUCOKINASE FROM NUCLEUS TO CYTOPLASM” (NATIONAL UNIVERSITY CORPORATION KAGAWA UNIVERSITY, priority 2006, published 2014):

Columns and labels:
hepatocytes [1] = test: Lactic acid generation in hepatocytes; assay type: cell-based, rat; conditions: MEM culture medium containing 5 mM or 25 mM D-glucose
Procedure: […] As a control, DMSO was added.
(§1) Cultured hepatocytes were incubated in an MEM culture medium containing 5 mM or 25 mM D-glucose with an action of promoting glucokinase transfer from nucleus to cytoplasm. Glucokinase transfer from nucleus to cytoplasm, glycogen synthesis and lactic acid generation were increased. Via glucose, glucokinase transfer from nucleus to cytoplasm occurs, which raises cytoplasmic glucokinase activity to possibly promote the sugar metabolism in liver. […] (FIGS. 4, 6, 7 and 8)

hepatocytes [2] = test: Glycogen synthesis in cultured hepatocytes; assay type: cell-based, rat; conditions: MEM culture medium containing 5 mM or 25 mM D-glucose
Procedure: as §1

glucokinase [3] = biological target: T1, glucokinase (Rattus norvegicus, UniProt P17712); test: Hepatic glucokinase transfer from nucleus to cytoplasm after oral sugar given with D-glucose, Wistar rats (Example 3); assay type: in vivo; conditions: Wistar rats starved overnight; 2 g/kg D-glucose oral alone; 30 minutes later
T1 construct: stained by a fluorescence antibody method using an anti-glucokinase antibody; endogenous in cells; host or cells: primary culture of hepatocytes from male Wistar rats
T1 sequence (P17712 1-465 isoform P17712-3): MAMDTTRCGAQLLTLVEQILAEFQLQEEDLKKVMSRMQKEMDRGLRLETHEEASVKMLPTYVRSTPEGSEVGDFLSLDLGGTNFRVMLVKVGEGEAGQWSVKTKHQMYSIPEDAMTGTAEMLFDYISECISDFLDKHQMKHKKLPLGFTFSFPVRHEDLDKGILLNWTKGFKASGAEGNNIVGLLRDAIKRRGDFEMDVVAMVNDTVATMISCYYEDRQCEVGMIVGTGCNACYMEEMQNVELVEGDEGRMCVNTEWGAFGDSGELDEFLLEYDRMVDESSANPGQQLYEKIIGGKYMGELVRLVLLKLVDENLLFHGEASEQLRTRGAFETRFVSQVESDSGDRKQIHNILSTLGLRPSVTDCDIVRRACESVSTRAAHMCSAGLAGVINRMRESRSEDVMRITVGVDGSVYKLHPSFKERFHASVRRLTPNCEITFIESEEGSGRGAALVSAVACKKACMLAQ
Procedure: Male Wistar rats starved overnight were given 2 g/kg D-glucose orally. Simultaneously, 0.2 g/kg D-psicose, D-fructose or a mixture of D-psicose and D-fructose at 1:3 were given orally. Thirty minutes later, the rats were perfused and fixed with 4% para-formaldehyde under anesthesia, from which liver was immediately resected to prepare frozen sections. The distribution of glucokinase in the nucleus and the cytoplasm was analyzed with the fluorescence antibody method using an anti-glucokinase antibody. Simultaneously, blood was drawn out from the tail vein and the portal vein, to assay blood glucose levels.

glucokinase [4] = biological target: T1, glucokinase; test: Hepatic glucokinase transfer from nucleus to cytoplasm in Goto-Kakizaki rats (type 2 diabetes model); assay type: in vivo
Procedure: The action of suppressing blood glucose increase with D-fructose at a low concentration was examined. To Goto-Kakizaki rats as a model animal of type 2 diabetes mellitus, D-glucose to 2 g/[…] or D-glucose to 2 g/l kg body weight+D-fructose to 0.2 g/1 kg body weight was administered orally, to examine the modification of glucokinase transfer from the nucleus to the cytoplasm in hepatocytes and the change of the blood glucose levels in the portal vein and the tail vein.
2 g/kg D-glucose is orally given to male Goto-Kakizaki rats starved overnight. Simultaneously, 0.2 g/kg D-psicose was orally given. Thirty minutes later and 60 minutes later, the rats were perfused and fixed with 4% para-formaldehyde under anesthesia, from which liver was immediately resected to prepare frozen sections. The distribution of hepatic glucokinase in nucleus and cytoplasm was analyzed with the fluorescence antibody method using an anti-glucokinase antibody. Simultaneously, blood was drawn out from the tail vein and the portal vein, to assay blood glucose level and insulin concentration. Herein, liver is divided in the portal vein region and the central vein region of liver. It has been known that the activity of glucokinase in the central vein region is higher by 1.3 fold to 1.5 fold than the activity thereof in the portal vein region. Therefore, the glucokinase distributions in the nucleus and the cytoplasm in the central vein region and the portal vein region were analyzed.

glucokinase [5] = biological target: T1, glucokinase; test: Glucokinase distribution in primary hepatocytes with D-glucose and D-fructose (fluorescence antibody method); assay type: cell-based
Procedure: In the presence of 5 mM D-glucose, glucokinase mainly existed in the cell nucleus.
as §1

[6] = 2 g/kg D-glucose oral alone, 30 and 60 minutes, vs starved

For O=C[C@H](O)[C@@H](O)[C@H](O)[C@H](O)CO [D-glucose], the lactic acid generation (hepatocytes [1]) was “increased”, the glycogen synthesis (hepatocytes [2]) was “increased” and the “glucokinase transfer from the nucleus to the cytoplasm in hepatocytes” value (glucokinase [3]) was “glucokinase transfer from the nucleus to the cytoplasm occurred slightly”. The “glucokinase fluorescence in the cytoplasm (liver)” value (glucokinase [4]; [6]) was “fluorescence in the cytoplasm was inversely increased”, the “glucokinase fluorescence in the nucleus (liver)” value (glucokinase [4]; [6]) was “Fluorescence in the nucleus was reduced” and the “glucokinase transfer from the nucleus to the cytoplasm in hepatocytes” value (glucokinase [4]; oral D-glucose alone) was “glucokinase transferred from the nucleus to the cytoplasm”. For the same compound, the “cytoplasmic glucokinase level (fluorescence intensity analysis)” value (glucokinase [4]; oral D-glucose vs 24-hour fasting, central vein and portal vein regions) was “significantly increased”, the cytoplasmic glucokinase (glucokinase [5]; 25 mM D-glucose, 37° C. for 30 minutes, vs 5 mM D-glucose) was “the cytoplasmic glucokinase was increased” and the “glucokinase transfer from nucleus to cytoplasm” value (glucokinase [5]; MEM culture medium containing 5 mM or 25 mM D-glucose) was “increased”.
